According to patent US10369145B2, “Coumarin derivatives and methods of use in treating hyperproliferative diseases” (DISCOVERYBIOMED, INC., priority 2013, dated 2019):

Tests used:
[1] = test system: hyperproliferative PKD cells (cloned polycystic kidney tissue cells); test: Concentration-response in primary cultures cloned from cystic kidney tissue; assay type: cell-based; details: 72 hour treatment; for IC50 / Max inhibition: hyperproliferative PKD cells
Protocol: (§1) The concentration-response effects of Compound DBM 228, Compound DBM 308, Compound DBM 101, and Compound DBM 328 were determined in primary cultures derived as ‘clones’ from cystic versus non-cystic kidney tissue. CRC graphs, IC50 values, and the percent maximum inhibition versus lowest doses without effect were calculated with GraphPad Prism software. […] There was also a marked separation in effect between hyperproliferative PKD cells (FIG. 5A and Table 3) and WT cells (FIG. 5B and Table 4).

[2] = test system: WT cells (cloned non-cystic kidney tissue cells); test: Concentration-response in primary cultures cloned from non-cystic kidney tissue; assay type: cell-based; details: 72 hour treatment
Protocol: as §1

[3] = test system: human cystic ADPKD and non-cystic renal epithelial cells; test: Proliferating versus confluent cystic ADPKD and normal renal cells; assay type: cell-based
Protocol: The compounds described herein are effective for inhibiting cellular proliferation in hyperproliferative cell types. To study the effects of these compounds, an assay was developed to differentiate the effects of the compounds on proliferating versus confluent cells. The assay design generates a proliferating density 24 hours after seeding and provides a 3-day active cell growth/doubling window in which to gauge the anti-proliferative effect of the compounds described herein. […] In this 3-day growth window, cell number increases with daily doublings across the 72-hour period (see FIG. 1).
In each assay design, compounds were added at the 24-hour timepoint after cell seeding. The effect of the compounds, relative to vehicle control and to VelCade (a proteasome inhibitor approved in the U.S. for treating relapsed multiple myeloma and mantle cell lymphoma) as a positive control, was assessed across the 3-day growth window for proliferating cells and on an already near confluent culture of cells for the same time period. […]
Cell number at the end of the assay was determined using the CELLTITER-GLO Luminescent Cell Viability Assay (Promega; Madison, Wis.). The CELLTITER-GLO Luminescent Cell Viability Assay is a homogeneous method of determining the number of viable cells in culture based on quantitation of the ATP present, an indicator of metabolically active cells. […]

[4] = test system: NCI/ADR-RES; details: for potency in multi-drug resistant line, in words (FIG. 9): NCI-ADR/RES versus drug-responsive cells
From the text: TGI means the drug concentration resulting in total growth inhibition or “cytostasis.” LC50 is the concentration of drug resulting in a 50% reduction in the measured cytosolic ATP at the end of the drug treatment as compared to that at the beginning, indicating a net loss of cells following treatment (cytotoxicity).
A major limitation with the anti-mitotic drugs in particular and in conventional chemotherapeutics in general, is their susceptibility to cellular mechanisms of adaptive/intrinsic multi-drug resistance (i.e., MDR efflux pumps such as p-glycoprotein, MRP1).

[5] = test system: NCI-60 cell panel; test: NCI-60 cell panel, whole panel; assay type: cell-based, human; details: average in the NCI-60 cell panel
[6] = test system: myeloma cells; assay type: cell-based; details: for GI50 / TGI / efficacy and potency (FIG. 4): myeloma cells; for GI50 / TGI: 48 h drug exposure
Protocol: For a typical screening experiment to identify the compounds, cells were seeded into 96- or 384-well microtiter plates at plating densities pre-determined for each cell line to ensure drug exposure occurs during the proliferative phase well before confluency is reached. After seeding, cells were incubated for 24 h prior to addition of experimental drugs. After 24 h, a test plate was assayed (CellTiterGlo—measurement of cytosolic ATP) to determine a baseline measurement of the cell population for each cell line at the time of drug addition. Experimental drugs were then added and cells were cultured for a 48 h drug exposure window. […] Values were calculated for each of these three parameters if the level of activity was reached; however, if the effect was not reached or was exceeded, the value for that parameter was expressed as greater or less than the maximum or minimum concentration tested.

[7] = test system: tubulin; test: Biochemical tubulin polymerization; details: FIG. 11C
Protocol: Following 24 hours of treatment with Compound DBM 228, Compound DBM 318, and Compound DBM 328, caspase 3/7 activation in U251MG cells was determined. The detection of caspase 3/7 activation in U251MG cells indicates activation of apoptosis. Tubulin polymerization was determined for Compounds DBM 227, DBM 228, DBM 308, DBM 318, DBM 701, DBM 707, DBM 715, paclitaxel, vincristine, and negative control Compound DBM 328. […] Paclitaxel served as polymerization enhancer control and vincristine served as polymerization inhibitor control.

[8] = test system: primary human glioblastoma multiforme (GBM) cells; test: Neurosphere growth of primary human GBM cells; assay type: cell-based; details: GBM cells grown in vitro on 3D neurospheres
From the text: Data are expressed as mean±SEM and represent at least two independent experiments with sample replicates.

[9] = test system: primary human idiopathic pulmonary fibrosis (IPF) myofibroblasts; test: Growth of primary human IPF myofibroblasts in vitro; assay type: cell-based; details: CRC

Work on `COc1ccccc1Nc1nc(-c2cc3cccc(OC)c3oc2=O)cs1` [Compound DBM 101] yielded an IC50 [1] of 7200 nM, a Max inhibition [1] of 77% and an IC50 [2] greater than 100000 nM. For the same molecule, the Max inhibition [2] was 48%, the “effect, in words” value ([3]; confluent diseased cells and proliferating and confluent normal cells) was “only partially affected and at mid-micromolar doses” and the “cytostatic effects, in words” value ([3]; proliferating cystic ADPKD cells) was “selective for hyperproliferative ‘diseased’ cells at potent nanomolar doses”.
For `COc1ccccc1Nc1nc(-c2cc3cccc([N+](=O)[O-])c3oc2=O)cs1` [Compound DBM 227], the IC50 ([4]; read-out: potency in the NCI-ADR/RES cell line, multi-drug resistant NCI-ADR/RES) was 100 nM, the GI50 [5] was 250 nM and the CC50 [6] was greater than 4000 nM. The GI50 [6] was 137 nM, the TGI [6] was 404 nM and the “effect on biochemical tubulin polymerization, in words” value [7] was “modestly inhibited”.
For `COc1ccccc1Nc1nc(-c2cc3cccc(Cl)c3oc2=O)cs1` [Compound DBM 308], the CC50 [6] was greater than 4000 nM, the “efficacy and potency (FIG. 4)” value [6] was “significant efficacy and potency” and the GI50 [6] was 166 nM. The TGI [6] was 247 nM, the “cytostatic effect, in words” value [1] was “potent and effective analog” and the IC50 [1] was 540 nM. For the same molecule, the Max inhibition [1] was 84%, the IC50 [2] was greater than 100000 nM and the Max inhibition [2] was 52%. For the same molecule, the “concentration giving equivalent cytotoxic effect” value [8] was 3 µM, the “cytostatic effect, in words” value [8] was “cytostatic effect at nanomolar doses” and the “effect on neurosphere growth, in words” value [8] was “dose-dependent growth arrest to cytotoxic effect”. The “effect on biochemical tubulin polymerization, in words” value [7] was “modestly inhibited”.
With `COc1ccccc1Nc1nc(-c2cc3cccc(Br)c3oc2=O)cs1` [Compound DBM 318] the CC50 [6] was 226 nM, the “efficacy and potency (FIG. 4)” value [6] was “significant efficacy and potency” and the GI50 [6] was 133 nM. The TGI [6] was 164 nM and the “effect on biochemical tubulin polymerization, in words” value [7] was “modestly inhibited”.
In the case of `COc1ccccc1Nc1nc(-c2cc3cccc(C(=O)O)c3oc2=O)cs1` [Compound DBM 328], the CC50 [6] is reported as greater than 4000 nM, the GI50 [6] is reported as 2110 nM and the TGI [6] is reported as >4,000 nM. It also gave an IC50 [1] of 78000 nM, a Max inhibition [1] of 48% and an IC50 [2] greater than 100000 nM. For the same molecule, the Max inhibition [2] was 28%, the “anti-proliferative effect, in words” value [9] was “without effect throughout the CRC” and the “effect on biochemical tubulin polymerization, in words” value [7] was “also inhibited microtubule polymerization”.
With `COc1ccccc1Nc1nc(-c2cc3cccc(C)c3oc2=O)cs1` [Compound DBM 707] the CC50 [6] was 544 nM, the “efficacy and potency (FIG. 4)” value [6] was “significant efficacy and potency” and the GI50 [6] was 131 nM. The TGI [6] was 183 nM and the “effect on biochemical tubulin polymerization, in words” value [7] was “modestly inhibited”.
In the case of `COc1ccccc1Nc1nc(-c2cc3ccc(N)c([N+](=O)[O-])c3oc2=O)cs1` [Compound DBM 715], the “efficacy and potency (FIG. 4)” value [6] is reported as “significant efficacy and potency” and the “effect on biochemical tubulin polymerization, in words” value [7] is reported as “modestly inhibited”.
For `Cn1nnc2c(C(N)=O)ncn2c1=O` [TMZ, temozolomide, reference compound], the “concentration giving equivalent cytotoxic effect” value [8] was 500 µM.
In the case of `CC(=O)O[C@H]1C(=O)[C@@]2(C)[C@H]([C@H](OC(=O)c3ccccc3)[C@]3(O)C[C@H](OC(=O)[C@H](O)[C@@H](NC(=O)c4ccccc4)c4ccccc4)C(C)=C1C3(C)C)[C@]1(OC(C)=O)CO[C@@H]1C[C@@H]2O` [paclitaxel, reference compound], the “potency in multi-drug resistant line, in words (FIG. 9)” value [4] is reported as “significantly right-shifted”.
In the case of `CC[C@]1(O)C[C@H]2CN(CCc3c([nH]c4ccccc34)[C@@](C(=O)OC)(c3cc4c(cc3OC)N(C=O)[C@H]3[C@@](O)(C(=O)OC)[C@H](OC(C)=O)[C@]5(CC)C=CCN6CC[C@]43[C@@H]65)C2)C1` [vincristine, reference compound], the “potency in multi-drug resistant line, in words (FIG. 9)” value [4] is reported as “significantly right-shifted”.
